According to patent US20260285857A1, “BICYCLIC AND HETEROCYCLIC AMIDE COMPOUNDS” (priority 2024, published 2026):

Tested on: immunoglobulin light chain protein WIL-FL T46L
Experiment: Differential scanning fluorimetry (thermal shift) assay
Format: binding
Conditions: temperature shift [Tm]compound-[Tm]vehicle, recombinant WIL-FL T46L

Row | Compound | DSF (Table B) | DSF (Table A)
1 | Cc1cc(N2CC[C@](C)(c3ccccc3)C2)cn2nc(C34CC(CO3)C4c3nc(NS(=O)(=O)[C@H]4CC[C@@H](C(=O)O)CC4)n[nH]3)nc12 (stereo partly shown) [Compound 561] | ***** (>2.5° C.=*****) | 
2 | CCC1(c2cccc(C)c2)CN(c2cc(C)c3nc(C(=O)N4C[C@@H]5CN(c6cccc(C(=O)O)n6)C[C@@H]5C4)nn3c2)C1 [Compound 397] |  | ***** (>2.5° C.=*****)
3 | Cc1cc(OC[C@H](C)c2cccc(F)c2)cn2nc(C(=O)NC3CCN(c4ccnc(C(=O)O)c4)CC3)nc12 [Compound 308] |  | ***** (>2.5° C.=*****)
4 | Cc1cc(N2CC[C@](C)(c3ccccc3)C2)cn2nc(C(=O)N3C[C@@H](O)[C@@H](O)C3)nc12 [Compound 115] |  | ***** (>2.5° C.=*****)
5 | Cc1cc(OC[C@H](C)c2ccccc2)cn2nc(C34CC(CO3)C4N)nc12 (stereo partly shown) [Compound 98] |  | *** (>1-1.5° C.=***)
6 | Cc1cc(OC[C@H](C)c2ccccc2)cn2nc(C(=O)NC3CCC(C)(O)C3)nc12 (stereo partly shown) [Compound 315] |  | **** (>1.5-2.5° C.=****)
7 | Cc1cc(N2CC[C@](C)(c3ccccc3)C2)cn2nc(C(=O)N3CCC4(CCN(c5cccc(C(=O)O)n5)C4)C3)nc12 (stereo partly shown) [Compound 258] |  | ***** (>2.5° C.=*****)
8 | Cc1cc(N2CC[C@](C)(c3ccccc3)C2)cn2nc(C(=O)NC3CC4CCC(C3)N4)nc12 (stereo partly shown) [Compound 199] |  | ***** (>2.5° C.=*****)
9 | Cc1cc(N2CC[C@](C)(c3ccccc3)C2)cn2nc(C(=O)N3CCCC(C)(C(=O)O)C3)nc12 (stereo partly shown) [Compound 178] |  | ***** (>2.5° C.=*****)
10 | Cc1cc(N2CC[C@](C)(c3ccccc3)C2)cn2nc(C(=O)N(C)[C@@H]3CCNC3)nc12 [Compound 114] |  | ***** (>2.5° C.=*****)
11 | Cc1cc(N2CC[C@](C)(c3ccccc3)C2)cn2nc(C(=O)N3CCC4(C3)CN(c3cccc(C(=O)O)n3)C4)nc12 [Compound 241] |  | ***** (>2.5° C.=*****)
12 | Cc1cc(N2CC[C@](C)(c3ccccc3)C2)cn2nc(C34CC(N5CCC(C(=O)O)CC5=O)(CO3)C4)nc12 (stereo partly drawn) [Compound 469, 1-(1-(8-methyl-6-((R)-3-methyl-3-phenylpyrrolidin-1-yl)-[1,2,4]triazolo[1,5-a]pyridin-2-yl)-2-oxabicyclo[2.1.1]hexan-4-yl)-2-oxopiperidine-4-carboxylic acid] | ***** (>2.5° C.=*****) | 
13 | Cc1cc(N2CC[C@](C)(c3cccc(Cl)c3)C2)cn2nc(C(=O)N3C[C@@H]4CN(c5cccc(C(=O)O)n5)C[C@@H]4C3)nc12 [Compound 418] |  | ***** (>2.5° C.=*****)
14 | Cc1cc(N2CC[C@](C)(c3ccccc3)C2)cn2nc(C(=O)NC3CCN(c4ccnc(S(C)(=N)=O)c4)CC3)nc12 (stereo partly shown) [Compound 283] |  | ***** (>2.5° C.=*****)
15 | Cc1cc(OC[C@H](C)c2ccccc2)cn2nc(C(=O)N[C@H]3[C@H]4CN[C@@H]3C4)nc12 [Compound 322] |  | ***** (>2.5° C.=*****)
16 | Cc1cc(N2CC[C@](C)(c3ccccc3)C2)cn2nc(C(=O)NC3COC4(CNC4)C3)nc12 (stereo partly shown) [Compound 152] |  | ***** (>2.5° C.=*****)
17 | Cc1noc([C@@H]2C[C@H](NC(=O)c3nc4c(C)cc(N5CC[C@](C)(c6ccccc6)C5)cn4n3)CN2)n1 [Compound 133] |  | ***** (>2.5° C.=*****)
18 | COC(=O)NCC1C2COC1(c1nc3c(C)cc(N4CC[C@](C)(c5ccccc5)C4)cn3n1)C2 (stereo partly shown) [Compound 498] | ***** (>2.5° C.=*****) | 
19 | Cc1cc(N2CC[C@](C)(c3ccccc3)C2)cn2nc(C(=O)N3CC4CN(c5cccc(C(=O)O)n5)CC4(O)C3)nc12 (stereo partly shown) [Compound 246] |  | ***** (>2.5° C.=*****)
20 | Cc1cc(N2CC[C@](C)(c3ccccc3)C2)cn2nc(C(=O)NC3CCC(O)(C(F)(F)F)C3)nc12 (stereo partly shown) [Compound 104] |  | ***** (>2.5° C.=*****)
21 | Cc1cc(N2CC[C@](C)(c3ccccc3)C2)cn2nc(C34CC(CO3)C4c3nc(NC(=O)C4CC5(CC(C(=O)O)C5)C4)n[nH]3)nc12 (stereo partly shown) [Compound 560] | ***** (>2.5° C.=*****) | 
22 | Cc1cc(N2CC[C@](C)(c3ccccc3)C2)cn2nc(C34CC(N5CC6(CC6C(=O)O)C5)(CO3)C4)nc12 (stereo partly drawn) [Compound 470, 5-[1-[8-methyl-6-[(3R)-3-methyl-3-phenyl-pyrrolidin-1-yl]-[1,2,4]triazolo[1,5-a]pyridin-2-yl]-2-oxabicyclo[2.1.1]hexan-4-yl]-5-azaspiro[2.3]hexane-2-carboxylic acid] | ***** (>2.5° C.=*****) | 
23 | Cc1cc(N2CC[C@](C)(c3ccccc3)C2)cn2nc(C34CC(CO3)C4CN3CCNC(=O)C3)nc12 (stereo partly shown) [Compound 84] |  | ***** (>2.5° C.=*****)
24 | Cc1cc(N2CC[C@](C)(c3ccccc3)C2)cn2nc(C(=O)NC3CC(N4C[C@@H](O)[C@@H](O)C4)C3)nc12 (stereo partly shown) [Compound 361] |  | ***** (>2.5° C.=*****)
25 | CNC(=O)c1nc2c(Cc3nc(CC(=O)O)n[nH]3)cc(N3CC[C@](C)(c4ccccc4)C3)cn2n1 [Compound 759, 2-[5-[[2-(methylcarbamoyl)-6-[(3R)-3-methyl-3-phenyl-pyrrolidin-1-yl]-[1,2,4]triazolo[1,5-a]pyridin-8-yl]methyl]-1H-1,2,4-triazol-3-yl]acetic acid] | **** (>1.5-2.5° C.=****) | 

Row | Compound | DSF (Table B) | DSF (Table A)
26 | Cc1cc(N2CC[C@@](C)(c3cccc(F)c3)C2)cn2nc(C(=O)NCC(C)(C)O)nc12 [Compound 382] |  | ***** (>2.5° C.=*****)
27 | Cc1cc(N2CC[C@](C)(c3ccccc3)C2)cn2nc(C34CC(C(=O)N[C@@H](C)CO)(CO3)C4)nc12 [Compound 442] | ***** (>2.5° C.=*****) | 
28 | Cc1cc(N2CC[C@](C)(c3ccccc3)C2)cn2nc(C(=O)N(C)[C@H]3CCNC3)nc12 [Compound 103] |  | ***** (>2.5° C.=*****)
29 | Cc1cc(N2CC[C@](C)(c3ccccc3)C2)cn2nc(C(=O)N3CC4(CCN4Cc4cccc(C(=O)O)n4)C3)nc12 [Compound 260] |  | ***** (>2.5° C.=*****)
30 | Cc1cc(N2CC[C@](C)(c3ccccc3)C2)cn2nc(C(=O)NCCN3C[C@H](O)[C@@H](O)C3)nc12 [Compound 119] |  | ***** (>2.5° C.=*****)
31 | Cc1cc(N2CC[C@](C)(c3ccccc3)C2)cn2nc(C(=O)NC3CCN(c4cccc(C(=O)O)n4)C3)nc12 (stereo partly drawn) [Compound 19, 6-(3-(8-methyl-6-((R)-3-methyl-3-phenylpyrrolidin-1-yl)-[1,2,4]triazolo[1,5-a]pyridine-2-carboxamido)pyrrolidin-1-yl)picolinic acid] |  | ***** (>2.5° C.=*****)
32 | CCOC(=O)C1C2CN(C3CC4(CC(NC(=O)c5nc6c(C)cc(N7CC[C@](C)(c8ccccc8)C7)cn6n5)C4)C3)CC21 (stereo partly shown) [Compound 378] |  | ***** (>2.5° C.=*****)
33 | Cc1cc(N2CC[C@](C)(c3ccc(Cl)c(Cl)c3)C2)cn2nc(C(=O)N3CC[C@@]4(CCN(c5cccc(C(=O)O)n5)C4)C3)nc12 [Compound 37, 6-[(5R)-2-[6-[(3R)-3-(3,4-dichlorophenyl)-3-methyl-pyrrolidin-1-yl]-8-methyl-[1,2,4]triazolo[1,5-a]pyridine-2-carbonyl]-2,7-diazaspiro[4.4]nonan-7-yl]pyridine-2-carboxylic acid] |  | ***** (>2.5° C.=*****)
34 | Cc1cc(N2CC[C@](C)(c3ccccc3)C2)cn2nc([C@@]34CO[C@@H](C3)C(N)C4)nc12 (stereo partly shown) [Compound 67] |  | **** (>1.5-2.5° C.=****)
35 | Cc1cc(N2CC[C@](C)(c3ccccc3)C2)cn2nc(C34CC(C(=O)NCc5ccnc(C(=O)O)c5)(CO3)C4)nc12 [Compound 453] | ***** (>2.5° C.=*****) | 
36 | Cc1cc(N2CCC(C)(c3ccc(F)cc3)C2)cn2nc(C(=O)NC3CCN(c4ccnc(C(=O)O)c4)CC3)nc12 (stereo not shown) [Compound 422] |  | ***** (>2.5° C.=*****)
37 | Cc1cc(OC[C@H](C)c2ccccc2)cn2nc(C34CC(N)(CO3)C4)nc12 [Compound 61] |  | **** (>1.5-2.5° C.=****)
38 | COC(=O)c1cccc(-c2nnc3n2CCN(C(=O)c2nc4c(C)cc(N5CC[C@](C)(c6ccccc6)C5)cn4n2)C3)n1 [Compound 406] |  | ***** (>2.5° C.=*****)
39 | Cc1cc(N2CCC(C)(c3ccccc3O)C2)cn2nc(C(=O)N3CC[C@@]4(CCN(c5cccc(C(=O)O)n5)C4)C3)nc12 (stereo partly shown) [Compound 410] |  | *** (>1-1.5° C.=***)
40 | Cc1cc(N2CC[C@](C)(c3ccccc3)C2)cn2nc(C(=O)N3CC[C@@H]4NC(=O)C[C@@H]43)nc12 [Compound 762] | ***** (>2.5° C.=*****) | 
41 | Cc1cc(N2CC[C@](C)(c3ccccc3)C2)cn2nc(C(=O)N3CC4(CCC4Oc4cccc(C(=O)O)n4)C3)nc12 (stereo partly shown) [Compound 216] |  | ***** (>2.5° C.=*****)
42 | Cc1cc(N2CC[C@](C)(c3ccccc3)C2)cn2nc(C(=O)N3CCC34CN(c3cccc(C(=O)O)n3)C4)nc12 [Compound 615] | **** (>1.5-2.5° C.=****) | 
43 | Cc1cc(N2CC[C@](C)(c3ccccc3)C2)cn2nc(C34CC(N)(CO3)C4)nc12 [Compound 5, 1-[8-methyl-6-[(3R)-3-methyl-3-phenyl-pyrrolidin-1-yl]-[1,2,4]triazolo[1,5-a]pyridine-2-yl]-2-oxabicyclo[2.1.1]hexan-4-amine] |  | ***** (>2.5° C.=*****)
44 | CCC(=O)N1CCC(NC(=O)c2nc3c(C)cc(N4CC[C@](C)(c5ccccc5)C4)cn3n2)CC1 [Compound 188] |  | ***** (>2.5° C.=*****)
45 | Cc1cc(N2CC[C@](C)(c3ccccc3)C2)cn2nc(C34CC(CO)(CO3)C4C#N)nc12 (stereo partly shown) [Compound 49] |  | ***** (>2.5° C.=*****)
46 | Cc1cc(N2CC[C@](C)(c3ccccc3)C2)cn2nc(C34CC(CO3)C4NCC(C)(C)O)nc12 (stereo partly drawn) [Compound 528, 2-methyl-1-[[1-[8-methyl-6-[(3R)-3-methyl-3-phenyl-pyrrolidin-1-yl]-[1,2,4]triazolo[1,5-a]pyridin-2-yl]-2-oxabicyclo[2.1.1]hexan-5-yl]amino]propan-2-ol] | ***** (>2.5° C.=*****) | 
47 | Cc1cc(N2CC[C@](C)(c3ccccc3)C2)cn2nc(C(=O)N3CCC4(CCN(c5ncn[nH]5)C4)C3)nc12 (stereo partly shown) [Compound 236] |  | ***** (>2.5° C.=*****)
48 | COC(=O)c1cc(N2CCC(NC(=O)c3nc4c(C)cc(N5CC[C@](C)(c6ccccc6)C5)cn4n3)CC2)ccn1 [Compound 263] |  | ***** (>2.5° C.=*****)
49 | Cc1cc(N2CC[C@](C)(c3ccccc3)C2)cn2nc(C34CC(CO3)C4COc3ccc(=O)[nH]c3)nc12 (stereo partly shown) [Compound 500] | ***** (>2.5° C.=*****) | 
